Experimental findings from publication PMC9138790 (2022) are described below.

The test system of the assay is polyA (polyadenine) (DNA, polymer) A. Description: differential pulse voltammetry, dAdo oxidation signal decrease. The conditions noted are these: 0.1 M acetate buffer pH 4.7; 10 µg/mL CIN, 20 min; dAdo signal falls to S% 50.

Consider `C[C@@H](NCCCc1cccc(C(F)(F)F)c1)c1cccc2ccccc12`, for which the binding result was “yes”.
